From ChEMBL document CHEMBL4831545, “Hormesis Effect of Berberine against Klebsiella pneumoniae Is Mediated by Up-Regulation of the Efflux Pump KmrA” (J Nat Prod, 2021)
Calls of active or inactive are those of the source. The calls are words filed in the database; no cut-off is given here.

Key:
[1] = Upregulation of KmrA promoter activity in Klebsiella pneumoniae assessed as increase in beta-galactosidase activity at 3 ug/ml by LacZ based OD600 analysis relative to control; type: ADME; details: dose 3 µg/ml
[2] = system: Klebsiella pneumoniae; test: Hormesis activity against Klebsiella pneumonia assessed as promotion of delayed bacterial growth at 25 to 50 ug/ml measured for 24 hrs in presence of 1 ug/ml tetracycline by OD600 based analysis; type: organism-based; details: in vivo, dose 25-50 µg/ml
[3] = system: Klebsiella pneumoniae; test: Hormesis activity against Klebsiella pneumonia assessed as inhibition of bacterial growth at 25 to 50 ug/ml measured for 24 hrs in presence of 2 ug/ml tetracycline by OD600 based analysis; type: functional, organism-based; details: dose 25-50 µg/ml
[4] = system: Klebsiella pneumoniae; test: Hormesis activity against Klebsiella pneumonia assessed as promotion of bacterial growth at 3 to 50 ug/ml measured for 24 hrs in presence of 4 ug/ml tetracycline by OD600 based analysis; type: organism-based; details: in vivo, dose 3-50 µg/ml
[5] = system: Acinetobacter baumannii; test: Hormesis activity against Acinetobacter baumannii assessed as promotion of bacterial growth at 3 to 50 ug/ml measured for 24 hrs in presence of efflux pump inhibitor, CCCP and 80 to 120 ug/ml tetracycline by OD600 based analysis; type: ADME, organism-based; details: in vivo, dose 3-50 µg/ml
[6] = system: Klebsiella pneumoniae; test: Hormesis activity against Klebsiella pneumoniae assessed as increase in antibiotic MIC by measuring rifampicin MIC at 3 ug/ml incubated for 12 hrs by OD600 based analysis (reference value: 25 ug/ml); type: ADME, organism-based; details: in vivo, dose 3 µg/ml
[7] = system: Klebsiella pneumoniae; test: Hormesis activity against Klebsiella pneumoniae assessed as increase in antibiotic MIC by measuring streptomycin MIC at 3 ug/ml incubated for 12 hrs by OD600 based analysis (reference value: 0.78125 ug/ml); type: ADME, organism-based; details: in vivo, dose 3 µg/ml
[8] = system: Klebsiella pneumoniae; test: Hormesis activity against Klebsiella pneumoniae assessed as increase in antibiotic MIC by measuring ampicillin MIC at 3 ug/ml incubated for 12 hrs by OD600 based analysis (reference value: 12.5 ug/ml); type: ADME, organism-based; details: in vivo, dose 3 µg/ml
[9] = system: Klebsiella pneumoniae; test: Hormesis activity against Klebsiella pneumoniae assessed as increase in antibiotic MIC by measuring meropenem MIC at 3 ug/ml incubated for 12 hrs by OD600 based analysis (reference value: 0.39625 ug/ml); type: ADME, organism-based; details: in vivo, dose 3 µg/ml
[10] = system: Klebsiella pneumoniae; test: Hormesis activity against Klebsiella pneumoniae assessed as increase in antibiotic MIC by measuring cefotaxime MIC at 3 ug/ml incubated for 12 hrs by OD600 based analysis (reference value: 0.39625 ug/ml); type: ADME, organism-based; details: in vivo, dose 3 µg/ml
[11] = system: Klebsiella pneumoniae; test: Hormesis activity against Klebsiella pneumoniae assessed as increase in antibiotic MIC by measuring atreonamMIC at 3 ug/ml incubated for 12 hrs by OD600 based analysis (reference value: 1.5625 ug/ml); type: ADME, organism-based; details: in vivo, dose 3 µg/ml
[12] = system: Klebsiella pneumoniae; test: Hormesis activity against overnight compound-treated Klebsiella pneumoniae assessed as increase in antibiotic MIC by measuring azithromycin MIC at 3 ug/ml incubated for 12 hrs by OD600 based analysis (reference value: 1.5625 ug/ml); type: ADME, organism-based; details: in vivo, dose 3 µg/ml
[13] = system: Klebsiella pneumoniae; test: Hormesis activity against overnight compound-treated Klebsiella pneumoniae assessed as increase in antibiotic MIC by measuring ciprofloxacin MIC at 3 ug/ml incubated for 12 hrs by OD600 based analysis (reference value: 0.0390625 ug/ml); type: ADME, organism-based; details: in vivo, dose 3 µg/ml
[14] = system: Klebsiella pneumoniae; test: Hormesis activity against overnight compound-treated Klebsiella pneumoniae assessed as increase in antibiotic MIC by measuring meropenem MIC at 3 ug/ml incubated for 12 hrs by OD600 based analysis (reference value: 0.39625 ug/ml); type: ADME, organism-based; details: in vivo, dose 3 µg/ml
[15] = system: Klebsiella pneumoniae; test: Hormesis activity against overnight compound-treated Klebsiella pneumoniae deficient in KmrA gene expression assessed as increase in antibiotic MIC by measuring tetracycline MIC at 3 ug/ml incubated for 12 hrs by OD600 based analysis (reference value: 6 ug/ml); type: ADME, organism-based; details: in vivo, dose 3 µg/ml
[16] = system: Klebsiella pneumoniae; test: Hormesis activity against overnight compound-treated Klebsiella pneumoniae deficient in KmrA gene expression assessed as increase in antibiotic MIC by measuring streptomycin MIC at 3 ug/ml incubated for 12 hrs by OD600 based analysis (reference value: 0.78125 ug/ml); type: ADME, organism-based; details: in vivo, dose 3 µg/ml
[17] = system: Enterobacter cloacae; test: Hormesis activity against Enterobacter cloacae assessed as increase in antibiotic MIC by measuring cefotaxime MIC at 3 ug/ml incubated for 12 hrs by OD600 based analysis (reference value: 1.5625 ug/ml); type: ADME, organism-based; details: in vivo, dose 3 µg/ml
[18] = system: Enterobacter cloacae; test: Hormesis activity against overnight compound-treated Enterobacter cloacae assessed as increase in antibiotic MIC by measuring chloramphenicol MIC at 3 ug/ml incubated for 12 hrs by OD600 based analysis (reference value: 3.125 ug/ml); type: ADME, organism-based; details: in vivo, dose 3 µg/ml
[19] = system: Enterobacter cloacae; test: Hormesis activity against overnight compound-treated Enterobacter cloacae assessed as increase in antibiotic MIC by measuring hygromycinMIC at 3 ug/ml incubated for 12 hrs by OD600 based analysis (reference value: 25 ug/ml); type: ADME, organism-based; details: in vivo, dose 3 µg/ml
[20] = system: Enterobacter cloacae; test: Hormesis activity against overnight compound-treated Enterobacter cloacae assessed as increase in antibiotic MIC by measuring atreonamMIC at 3 ug/ml incubated for 12 hrs by OD600 based analysis (reference value: 3.125 ug/ml); type: ADME, organism-based; details: in vivo, dose 3 µg/ml
[21] = system: Acinetobacter baumannii; test: Hormesis activity against Acinetobacter baumannii assessed as increase in antibiotic MIC by measuring tetracycline MIC at 3 ug/ml incubated for 12 hrs by OD600 based analysis (reference value: 240 ug/ml); type: ADME, organism-based; details: in vivo, dose 3 µg/ml
[22] = system: Acinetobacter baumannii; test: Hormesis activity against Acinetobacter baumannii assessed as increase in antibiotic MIC by measuring chloramphenicol MIC at 3 ug/ml incubated for 12 hrs by OD600 based analysis (reference value: 6.25 ug/ml); type: ADME, organism-based; details: in vivo, dose 3 µg/ml
[23] = system: Acinetobacter baumannii; test: Hormesis activity against Acinetobacter baumannii assessed as increase in antibiotic MIC by measuring ampicillin MIC at 3 ug/ml incubated for 12 hrs by OD600 based analysis (reference value: 100 ug/ml); type: ADME, organism-based; details: in vivo, dose 3 µg/ml
[24] = system: Acinetobacter baumannii; test: Hormesis activity against overnight-compound treated Acinetobacter baumannii assessed as increase in antibiotic MIC by measuring hygromycinMIC at 3 ug/ml incubated for 12 hrs by OD600 based analysis (reference value: 125 ug/ml); type: ADME, organism-based; details: in vivo, dose 3 µg/ml
[25] = system: Acinetobacter baumannii; test: Hormesis activity against overnight-compound treated Acinetobacter baumannii assessed as increase in antibiotic MIC by measuring cefotaxime MIC at 3 ug/ml incubated for 12 hrs by OD600 based analysis (reference value: 12.5 ug/ml); type: ADME, organism-based; details: in vivo, dose 3 µg/ml

- fold change (FC) [1]: 2.5
- MIC [6]: 25 µg/mL
- MIC [7]: 1.5625 µg/mL
- MIC [8]: 12.5 µg/mL
- MIC [9]: 0.3962 µg/mL
- MIC [10]: 0.3962 µg/mL
- MIC [11]: 1.5625 µg/mL
- MIC [12]: 3.125 µg/mL
- MIC [13]: 0.1562 µg/mL
- MIC [14]: 0.3962 µg/mL
- MIC [15]: 6 µg/mL
- MIC [16]: 1.5625 µg/mL
- MIC [17]: 3.125 µg/mL
- MIC [18]: 3.125 µg/mL
- MIC [19]: 25 µg/mL
- MIC [20]: 3.125 µg/mL
- MIC [21]: 240 µg/mL
- MIC [22]: 6.25 µg/mL
- MIC [23]: 200 µg/mL
- MIC [24]: 250 µg/mL
- MIC [25]: 12.5 µg/mL
SMILES: COc1ccc2cc3[n+](cc2c1OC)CCc1cc2c(cc1-3)OCO2 [BERBERINE]
- Activity [2]: Non-Toxic
- Activity [3]: Active
- Activity [4]: Toxic
- Activity [5]: Non-Toxic
